Among the data in US5475009A, “1, 2-dialkoxyethanes as 5-lipoxygenase inhibitors” (Abbott Laboratories, priority 1994, dated 1995) are inhibition values, retold here.

For the assay, the target named is T1, 5-Lipoxygenase (Homo sapiens, UniProt P09917).
T1 construct: endogenous in cells; host or cells: human heparinized whole blood (its leukocytes)
T1 sequence (P09917 1-674): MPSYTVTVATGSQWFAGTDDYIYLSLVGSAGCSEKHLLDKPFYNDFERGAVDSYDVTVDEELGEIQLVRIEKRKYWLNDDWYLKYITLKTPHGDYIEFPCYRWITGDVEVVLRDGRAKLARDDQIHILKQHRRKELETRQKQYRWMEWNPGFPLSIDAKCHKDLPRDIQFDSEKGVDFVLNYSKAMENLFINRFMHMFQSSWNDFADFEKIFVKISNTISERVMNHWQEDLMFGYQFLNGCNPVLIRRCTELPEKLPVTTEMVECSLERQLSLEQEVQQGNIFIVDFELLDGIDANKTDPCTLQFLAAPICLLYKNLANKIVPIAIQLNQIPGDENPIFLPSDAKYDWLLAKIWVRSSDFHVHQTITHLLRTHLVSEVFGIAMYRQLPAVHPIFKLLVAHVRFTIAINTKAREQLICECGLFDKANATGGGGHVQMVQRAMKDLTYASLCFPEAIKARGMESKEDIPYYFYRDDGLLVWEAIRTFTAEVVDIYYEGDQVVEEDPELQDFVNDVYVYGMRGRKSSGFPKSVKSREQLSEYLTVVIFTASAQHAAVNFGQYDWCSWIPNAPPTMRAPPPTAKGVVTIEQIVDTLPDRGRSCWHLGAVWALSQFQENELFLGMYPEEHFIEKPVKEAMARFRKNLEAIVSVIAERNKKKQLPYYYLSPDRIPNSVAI
In words: Inhibition of calcium ionophore A23187-induced LTB4 biosynthesis in human whole blood (radioimmunoassay). The conditions noted are these: human heparinized whole blood, 15 min preincubation, A23187 8.3 μM, 30 min, read-out: Inhibition of stimulated LTB4 formation in human whole blood (IC50 (10^-6 M)); for inhibition at 0.2 µM: @ 0.20 μM. It counts as cell-based. How it is done: Inhibition of leukotriene biosynthesis was evaluated in an assay, involving calcium ionophore-induced LTB4 biosynthesis expressed human whole blood. Human heparinized whole blood was preincubated with test compounds or vehicle for 15 min at 37° C. followed by calcium ionophore A23187 challenge (final concentration of 8.3 μM) and the reaction terminated after 30 min by adding two volumes of methanol containing prostaglandin B2 as an internal recovery standard. The methanol extract was analyzed for LTB4 using a commercially available radioimmunoassay.
In Vitro Inhibitory Potencies of Compounds of this Invention
Against 5-Lipoxygenase from Stimulated LTB4
Formation in Human Whole Blood

Consider `COC[C@@H](OC)[C@@H](OC)c1cc(F)cc(OCc2ccc3ccccc3c2)c1` [Example 7, anti-(1S, 2R)-1-[(5-fluoro-3-(napth-2-ylmethyloxy)phenyl)]-1,2,3-trimethoxypropane], for which the inhibition at 0.2 µM stood at 95%.

Consider `CO/N=C(\c1cc(F)cc(OCc2ccc3ccccc3c2)c1)[C@H]1COC(C)(C)O1` [4(E oxime), E-(4S)-O-methyl-2,2-dimethyl-4-[(5-fluoro-3-(napth-2-ylmethyloxy)phenyl)oximinomethyl]-1,3-dioxolane], for which the inhibition at 0.2 µM stood at 100%.

In the case of `CO/N=C(/c1cc(F)cc(OCc2ccc3c(ccc(=O)n3C)c2)c1)[C@H]1COC(C)(C)O1` [Example 6, Z-(4S)-O-methyl-2,2-dimethyl-4-[(5-fluoro-3-(1,2-dihydro-1-methyl-2-oxoquinoline-6-ylmethyloxy)phenyl)oximinomethyl]-1,3-dioxolane], the inhibition at 0.2 µM is 83%.

Turning to `CO/N=C(/c1cc(F)cc(OCc2ccc3ccccc3c2)c1)[C@H]1COC(C)(C)O1` [4(Z oxime), Z-(4S)-O-methyl-2,2-dimethyl-4-[(5-fluoro-3-(napth-2-ylmethyloxy)phenyl)oximinomethyl]-1,3-dioxolane], the inhibition at 0.78 µM was 78%.

As to `COC[C@@H](OC)[C@H](OC)c1cc(F)cc(OCc2ccc3ccccc3c2)c1` [Example 8, syn-(1R, 2R)-1-[(5-fluoro-3-(napth-2-ylmethyloxy)phenyl)]-1,2,3-trimethoxypropane], the inhibition at 0.78 µM was determined as 92%.

For the molecule `CO/N=C(\c1cc(F)cc(OCc2ccc3c(ccc(=O)n3C)c2)c1)[C@H]1COC(C)(C)O1` [Example 5, E-(4S)-O-methyl-2,2-dimethyl-4-[(5-fluoro-3-(1,2-dihydro-1-methyl-2-oxoquinoline-6-ylmethyloxy)phenyl)oximinomethyl]-1,3-dioxolane], the inhibition at 0.1 µM (@ 0.10 μM) came to 95%.

A word on the inhibition: it is how much of the control response was suppressed.
